Laboratory results: PubChem BioAssay AID330 (DTP/NCI, 2004)
Several values for one entry are separate records, joined by “and”; a condition that tells them apart may be missing. Identical values can stand only once. Toxic doses and inconclusive results are not listed. How the source made its calls: active means survival T/C of 150% or more; inactive means T/C below 125% in these data.

System: P388 leukemia ip, CD2F1 mice, survival T/C
Experiment: NCI In Vivo Anticancer Drug Screen. Data for tumor model P388 Leukemia (intraperitoneal) in CD2F1 (CDF1) mice
Conditions: endpoint: median survival time, higher = longer survival
How it was run: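 Mice carrying the transplanted tumor received test compound or vehicle. Survival was recorded in each group, and the value is the treated-group measurement divided by that of the vehicle-treated control group.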

[1] = dose: 25.0 mg/kg/injection, schedule: Q01DX009 (ip), vehicle: saline
[2] = dose: 50.0 mg/kg/injection, schedule: Q01DX009 (ip), vehicle: Klucel (hydroxypropylcellulose) (HPC)
[3] = dose: 50.0 mg/kg/injection, schedule: Q01DX009 (ip), vehicle: saline
[4] = dose: 100.0 mg/kg/injection, schedule: Q01DX009 (ip), vehicle: saline
[5] = dose: 100.0 mg/kg/injection, schedule: Q01DX001 (ip), vehicle: saline with Tween-80
[6] = dose: 200.0 mg/kg/injection, schedule: Q01DX001 (ip), vehicle: saline with Tween-80
[7] = dose: 400.0 mg/kg/injection, schedule: Q01DX001 (ip), vehicle: saline with Tween-80
[8] = dose: 50.0 mg/kg/injection, schedule: Q01DX009 (ip), vehicle: saline with Tween-80
[9] = dose: 100.0 mg/kg/injection, schedule: Q01DX009 (ip), vehicle: saline with Tween-80
[10] = dose: 200.0 mg/kg/injection, schedule: Q01DX009 (ip), vehicle: saline with Tween-80
[11] = dose: 50.0 mg/kg/injection, schedule: Q01DX005 (ip), vehicle: saline with Tween-80
[12] = dose: 100.0 mg/kg/injection, schedule: Q01DX005 (ip), vehicle: saline with Tween-80
[13] = dose: 200.0 mg/kg/injection, schedule: Q01DX005 (ip), vehicle: saline with Tween-80
[14] = dose: 50.0 mg/kg/injection, schedule: Q01DX005 (ip), vehicle: Klucel (hydroxypropylcellulose) (HPC)
[15] = dose: 100.0 mg/kg/injection, schedule: Q01DX005 (ip), vehicle: Klucel (hydroxypropylcellulose) (HPC)
[16] = dose: 200.0 mg/kg/injection, schedule: Q01DX005 (ip), vehicle: Klucel (hydroxypropylcellulose) (HPC)
[17] = dose: 100.0 mg/kg/injection, schedule: Q04DX003 (ip), vehicle: Klucel (hydroxypropylcellulose) (HPC)
[18] = dose: 400.0 mg/kg/injection, schedule: Q04DX003 (ip), vehicle: Klucel (hydroxypropylcellulose) (HPC)
[19] = dose: 200.0 mg/kg/injection, schedule: Q01DX009 (ip), vehicle: saline
[20] = dose: 50.0 mg/kg/injection, schedule: Q04DX003 (ip), vehicle: saline with Tween-80
[21] = dose: 100.0 mg/kg/injection, schedule: Q04DX003 (ip), vehicle: saline with Tween-80
[22] = dose: 200.0 mg/kg/injection, schedule: Q04DX003 (ip), vehicle: saline with Tween-80

Measured: T/C

CC1=CC(=Nc2ccc(N(CCCl)CCCl)cc2)C=C(C)C1=O
active: dose: 12.5 mg/kg/injection, schedule: Q01DX009 (ip), vehicle: Klucel (hydroxypropylcellulose) (HPC) 186 % of control | dose: 12.5 mg/kg/injection, schedule: Q01DX009 (ip), vehicle: other 153 % of control | dose: 25.0 mg/kg/injection, schedule: Q01DX009 (ip), vehicle: Klucel (hydroxypropylcellulose) (HPC) 173 % of control and 186 % of control | dose: 25.0 mg/kg/injection, schedule: Q01DX009 (ip), vehicle: other 235 % of control | [2] 170 % of control and 186 % of control | [3] 157 % of control | [4] 166 % of control
inactive: dose: 3.12 mg/kg/injection, schedule: Q01DX009 (ip), vehicle: Klucel (hydroxypropylcellulose) (HPC) 105 % of control | dose: 12.5 mg/kg/injection, schedule: Q01DX009 (ip), vehicle: saline 104 % of control and 118 % of control | [1] 114 % of control | dose: 50.0 mg/kg/injection, schedule: Q01DX009 (ip), vehicle: other 91 % of control

C=C1C(=O)O[C@@H]2C3=C(C)C(=O)CC[C@]3(C)CC[C@@H]12
inactive: dose: 100.0 mg/kg/injection, schedule: Q04DX002 (ip), vehicle: saline with Tween-80 108 % of control

CC(=N)C(C#N)C(=S)SCCC#N (centres undefined)
inactive: [2] 97 % of control | dose: 100.0 mg/kg/injection, schedule: Q01DX009 (ip), vehicle: Klucel (hydroxypropylcellulose) (HPC) 89 % of control | dose: 200.0 mg/kg/injection, schedule: Q01DX009 (ip), vehicle: Klucel (hydroxypropylcellulose) (HPC) 106 % of control

Nc1ccc(S(=O)(=O)NCCO)cc1[N+](=O)[O-]
inactive: [5] 95 % of control | [6] 100 % of control | [7] 100 % of control

CCOC(=O)c1ccc(NC(CCSc2ccccc2)=NC(C)(C)C)cc1
inactive: [8] 103 % of control | [9] 107 % of control | [10] 94 % of control

CCOC(=O)c1ccc2cc(C)c3ccc(N)nc3n2c1=O
inactive: dose: 25.0 mg/kg/injection, schedule: Q01DX005 (ip), vehicle: saline with Tween-80 93 % of control | [11] 98 % of control | [12] 92 % of control and 93 % of control | [13] 88 % of control

CN1C(=O)C(=Cc2ccc(O)cc2)C(=O)N(C)C1=O
inactive: [8] 112 % of control and 113 % of control | [9] 118 % of control and 123 % of control | dose: 400.0 mg/kg/injection, schedule: Q01DX009 (ip), vehicle: saline with Tween-80 86 % of control

CCOC(=O)CCCC(=O)Cl
inactive: [8] 94 % of control | [9] 99 % of control | [10] 96 % of control

O=C(Cn1nnc(N2CCOCC2)n1)N/N=C/c1ccccc1Cl
inactive: dose: 60.0 mg/kg/injection, schedule: Q01DX005 (ip), vehicle: Klucel (hydroxypropylcellulose) (HPC) 91 % of control | dose: 120.0 mg/kg/injection, schedule: Q01DX005 (ip), vehicle: Klucel (hydroxypropylcellulose) (HPC) 87 % of control | dose: 240.0 mg/kg/injection, schedule: Q01DX005 (ip), vehicle: Klucel (hydroxypropylcellulose) (HPC) 87 % of control

CC1CCC(n2cnc3c(Cl)ncnc32)O1 (centres undefined)
inactive: dose: 25.0 mg/kg/injection, schedule: Q01DX005 (ip), vehicle: Klucel (hydroxypropylcellulose) (HPC) 97 % of control | [14] 103 % of control | [15] 110 % of control | [16] 112 % of control | dose: 400.0 mg/kg/injection, schedule: Q01DX005 (ip), vehicle: Klucel (hydroxypropylcellulose) (HPC) 114 % of control

CC1/C(=N/Nc2ccc([N+](=O)[O-])cc2)CC2C3(C)CCC2(C(C)C(=O)O)C(=O)C13 (centres undefined)
inactive: dose: 25.0 mg/kg/injection, schedule: Q04DX003 (ip), vehicle: Klucel (hydroxypropylcellulose) (HPC) 92 % of control | dose: 50.0 mg/kg/injection, schedule: Q04DX003 (ip), vehicle: Klucel (hydroxypropylcellulose) (HPC) 94 % of control | [17] 88 % of control and 94 % of control | [18] 90 % of control

[O-][n+]1ccc(C2CO2)cc1 (centres undefined)
inactive: [3] 93 % of control | [4] 101 % of control | [19] 98 % of control

CCCC1OCC(O)C(C(O)C(=O)CN(C)c2ccccc2)O1 (centres undefined)
inactive: [11] 98 % of control | [12] 100 % of control | [13] 98 % of control

COC(=O)C1(c2ccccc2)N=NN=C1N(C)C (centres undefined)
inactive: [11] 98 % of control | [12] 106 % of control | [13] 110 % of control

COc1ccc(C(=O)NC(C(N)=O)C(N)=O)cc1
inactive: dose: 100.0 mg/kg/injection, schedule: Q04DX003 (ip), vehicle: saline 99 % of control | dose: 200.0 mg/kg/injection, schedule: Q04DX003 (ip), vehicle: saline 99 % of control | dose: 400.0 mg/kg/injection, schedule: Q04DX003 (ip), vehicle: saline 97 % of control

CN(C[CH2][Sn]([CH3])([CH3])[Cl])C[CH2][Sn]([CH3])([CH3])[Cl]
inactive: dose: 3.75 mg/kg/injection, schedule: Q01DX005 (ip), vehicle: saline 102 % of control | dose: 7.5 mg/kg/injection, schedule: Q01DX005 (ip), vehicle: saline 121 % of control

CC(=O)NN=Nc1ccc(C)cc1
inactive: [14] 105 % of control | [15] 102 % of control

CC1SC(=S)N(c2ccccc2)C1=O (centres undefined)
inactive: [8] 104 % of control | [20] 112 % of control | [9] 100 % of control | [21] 108 % of control | [10] 109 % of control | [22] 108 % of control

C(=NCCC[Si]12OCCN(CCO1)CCO2)c1ccc(C=NCCC[Si]23OCCN(CCO2)CCO3)cc1
inactive: [14] 95 % of control | [15] 97 % of control | [16] 95 % of control

CC(C)(Sc1cc(Cl)c(Cl)c(Cl)c1)C(=O)OCCN1CCOCC1
inactive: dose: 60.0 mg/kg/injection, schedule: Q01DX005 (ip), vehicle: saline with Tween-80 101 % of control and 88 % of control | dose: 120.0 mg/kg/injection, schedule: Q01DX005 (ip), vehicle: saline with Tween-80 101 % of control | dose: 240.0 mg/kg/injection, schedule: Q01DX005 (ip), vehicle: saline with Tween-80 86 % of control and 94 % of control

Cc1nc2[nH]ncc2c(=O)n1-c1ccccc1Cl
inactive: [14] 101 % of control | [15] 101 % of control | [16] 99 % of control

OC(CCl)c1ccc2ccc3c(c2c1)Nc1ccccc1S3 (centres undefined)
inactive: [17] 107 % of control | dose: 200.0 mg/kg/injection, schedule: Q04DX003 (ip), vehicle: Klucel (hydroxypropylcellulose) (HPC) 104 % of control | [18] 102 % of control

[O-][n+]1cc(Cl)cc(Cl)c1
inactive: [1] 100 % of control and 106 % of control | [3] 108 % of control and 96 % of control | [4] 100 % of control and 96 % of control | [19] 99 % of control and 102 % of control | dose: 400.0 mg/kg/injection, schedule: Q01DX009 (ip), vehicle: saline 99 % of control and 96 % of control

Cc1cc2c(=O)[nH]c(N)nc2nc1C
inactive: [11] 100 % of control | [12] 96 % of control | [13] 102 % of control

C/C(=N\N=C(\[Se])N1CCN(c2ccccn2)CC1)c1ccccn1
inactive: dose: 12.5 mg/kg/injection, schedule: Q04DX003 (ip), vehicle: saline with Tween-80 108 % of control | dose: 25.0 mg/kg/injection, schedule: Q04DX003 (ip), vehicle: saline with Tween-80 109 % of control and 116 % of control | [20] 113 % of control | [21] 115 % of control and 124 % of control | [22] 115 % of control

CCCCCCCCCC#CC(=O)O
inactive: [8] 95 % of control | [9] 110 % of control | [10] 89 % of control

O=C(NC1CCCCC1)C1C(=O)C(=O)N(C2CCCCC2)C1=O (centres undefined)
inactive: [11] 105 % of control | [12] 98 % of control

O=C(N/C(=C\c1ccccc1)C(=O)N1CCN(c2ccccc2)CC1)c1ccccc1
inactive: [11] 98 % of control | [12] 98 % of control | [13] 86 % of control

O=C1Nc2c(ccc3c2NCCC3)C2CCCC12 (centres undefined)
inactive: [5] 94 % of control | [6] 94 % of control | [7] 90 % of control

CN(c1ccccc1)S(=O)c1ccccc1 (centres undefined)
inactive: dose: 25.0 mg/kg/injection, schedule: Q01DX009 (ip), vehicle: saline with Tween-80 94 % of control | [8] 103 % of control | [9] 110 % of control
